In patent US11001587B2, “Substituted indazoles as phosphatidylinositol kinase inhibitors” (CUROVIR AB, priority 2017, dated 2021):
Read-outs that look alike come from different tables or passages of the source.

Experiments:
Enterovirus 71 = test: In vitro CPE assay in mammalian cell culture, EV71; format: cell-based; settings: Enterovirus A, viral cytopathic effect in mammalian cell culture, read-out: EV71 inhibition capacity (IC50)
coxsackie B5 virus = test: In vitro CPE assay in mammalian cell culture, B5; format: cell-based; settings: viral cytopathic effect in mammalian cell culture, read-out: B5 inhibition capacity (IC50)
coxsackie B4 virus = test: In vitro CPE assay in mammalian cell culture, B4; format: cell-based; settings: Enterovirus B, viral cytopathic effect in mammalian cell culture, read-out: B4 inhibition capacity (IC50)
PI3Kβ = PI3Kβ (Homo sapiens, UniProt P42338); test: PI3 kinase inhibition HTRF assay; format: biochemical; settings: * no inhibition at the highest tested concentration 1 μM
Protocol: (§1) Phosphatidyl inositol kinase inhibition assay Inhibition of PI4 kinases was studied using the ADP-Glo™ Kinase Assay which is a luminescent kinase assay that measures ADP formed from a kinase reaction, wherein ADP is converted into ATP, which is converted into light by Ultra-Glo™ Luciferase. The assay is performed in two steps; first, after the kinase reaction, an equal volume of ADP-Glo™ Reagent is added to terminate the kinase reaction and deplete the remaining ATP. In the second step, the Kinase Detection Reagent is added, which simultaneously converts ADP to ATP and allows the newly synthesized ATP to be measured using a coupled luciferase/luciferin reaction. The luminescent signal produced is proportional to the activity of the kinase. Inhibition of PI3 kinases was studied using the HTRF (homogeneous time-resolved fluorescence) assay, which is a universal method for identifying and characterizing the phosphotransferase activity induced by any ATP/ADP dependent target. The formation of ADP was detected by a specific monoclonal antibody labeled with Eu^3+ cryptate, and directly correlated with the amount of phosphorylated substrate.

PI3Kα = PI3Kα (Homo sapiens, UniProt P42336); test: PI3 kinase inhibition HTRF assay; format: biochemical; settings: * no inhibition at the highest tested concentration 1 μM
Protocol: as §1

Enterovirus 6 = test: In vitro CPE assay in mammalian cell culture, EV6; format: cell-based; settings: viral cytopathic effect in mammalian cell culture, read-out: EV6 inhibition capacity (IC50)
polio virus Sabin 1 = test: organism not typed; format: cell-based; settings: read-out: Polio 1 inhibition capacity (IC50)
Enterovirus 30 = test: In vitro CPE assay in mammalian cell culture, EV30; format: cell-based; settings: viral cytopathic effect in mammalian cell culture, read-out: EV30 inhibition capacity (IC50)
PI4KIIIβ = PI4KIIIβ (Homo sapiens, UniProt Q9UBF8); test: Phosphatidyl inositol kinase inhibition assay (ADP-Glo Kinase Assay); format: biochemical
Protocol: as §1

PI4KIIIα = PI4KIIIα (Homo sapiens, UniProt P42356); test: as above; format: biochemical; settings: * no inhibition at the highest tested concentration 1 μM
Protocol: as §1

Enterovirus 68 = test: In vitro CPE assay in mammalian cell culture, EV68; format: cell-based; settings: Enterovirus D, viral cytopathic effect in mammalian cell culture, read-out: EV68 inhibition capacity (IC50)
coxsackie B2 virus = test: In vitro CPE assay in mammalian cell culture, B2; format: cell-based; settings: viral cytopathic effect in mammalian cell culture, read-out: B2 inhibition capacity (IC50)
coxsackie B3 virus = test: In vitro CPE assay in mammalian cell culture, B3; format: cell-based; settings: Enterovirus B, viral cytopathic effect in mammalian cell culture, read-out: B3 inhibition capacity (IC50)
coxsackie B1 virus = test: In vitro CPE assay in mammalian cell culture, B1; format: cell-based; settings: viral cytopathic effect in mammalian cell culture, read-out: B1 inhibition capacity (IC50)
in vivo [1] = test: in vivo; parameters: species or system Sprague Dawley rats; settings: male, Sprague Dawley, rat, po, 50 mg/kg
Protocol: Overnight fasted animals were administered with the test compounds in recommended vehicle 0.4% (v/v) Tween 80+2% (v/v) Glycerol and 15% w/v HPBCD by oral route with a dose of 50 mg/kg body weight at dose volume of 10 mL/kg bw. Under mild isoflurane anesthesia, blood samples were collected into pre-labeled tubes containing anticoagulant (K2EDTA—2 mg/mL blood) during the next 24 hours post dose. Collected blood samples were centrifuged at 4000 rpm, 4° C. for 10 minutes and plasma was separated and stored at −80° C. until analysis.

[2] = Metabolic stability in rat liver microsomes; format: in vitro ADME; settings: 5 μM test item, 0.125 mg/mL microsomal protein
Protocol: (§2) Metabolic stability in human and rat liver microsomesMetabolic stability was studied using human (HLM) or rat (RLM) liver microsomes. The final composition of the assay included 5 μM of test item and reference item (Diclofenac or Imipramine) prepared from DMSO stock, so that the final concentration of DMSO was 0.1%, 0.125 mg/mL microsomal protein and cofactors (5.0 mM G-6-P, 0.06 U/mL G-6-PDH, 2.0 mM MgCl2, 1.0 mM NADP^+). Test and reference items were incubated with human or rat liver microsomes with or without cofactors. The reaction mixture (100 μL) was removed at specified time periods and the reaction was stopped by addition of stop solution. The samples were extracted in presence of internal standard and were analyzed using LC-MS/MS. The percent of the test/reference item remaining after a specified incubation period was calculated with respect to the peak area ratio at time 0 min.

EV71 = test: Time of addition assay; format: cell-based, Enterovirus 71; settings: Enterovirus A, 100 nM, EV71 at high titer
Protocol: The titer of the virus was determined by the standard method of tissue culture infective dose (TCID50) on cells. Briefly, cells were infected with 50 μl of virus suspension, and diluted 10-fold in media. The plates were incubated in 37° C. with 5% CO2 for 3-7 days and cells were inspected daily for CPE. After determining CPE, plates were stained with Gram's Crystal Violet solution and optical density was read at 540 nm. […] Substances at a final concentration of 0.1 nM-1 μM and the virus were added to the cells and incubated for 3-7 days depending on the virus and cell line used. As controls, uninfected cells and cells infected with virus (no substance) were included on each plate. The cells were stained with crystal violet after determining the CPE on infected controls and the optical density was read at 540 nm. The inhibition capacity was calculated as a % by comparison with non-infected and infected controls. Time of addition assay The assay was performed like the “in vitro assay in mammalian cell culture” described above with the exception that substance was added one hour pre inoculation (−1 h), at inoculation (0 h), and 2 hours (+2 h), 6 hours (+6 h) or 24 hours (+24 h) past inoculation. The virus EV71 was used at high titer for the test.

[3] = Metabolic stability in human liver microsomes; format: in vitro ADME; settings: for Remaining after 1 h, HLM: human liver microsomes, 5 μM test item, 0.125 mg/mL microsomal protein; for half-life at 5 μM: human, microsomes
Protocol: as §2

in vitro = in vitro ADME; settings: plasma, pH 7.4
Protocol: Plasma protein binding study was performed by using a Rapid Equilibrium Dialysis (RED) device containing dialysis membrane with a molecular weight cut-off of 8,000 Daltons. Each dialysis insert contains two chambers. The red chamber was for the plasma while the white chamber was for the buffer. The human and rat plasma (pH adjusted to 7.40) samples of test items and reference items (Warfarin and Propranolol) were prepared at a required test concentration of 5 μM using 5 mM DMSO stocks (final DMSO concentration was 0.1%). 300 μL of plasma sample was added into the sample chamber. 500 μL of buffer was added into the buffer chamber. After sealing the RED device with an adhesive film, incubation was done at 37° C. with shaking at 300 rpm for 4 h. Following incubation, an aliquot of 50 μL was removed from each well (plasma and buffer side) and diluted with equal volume of opposite matrix to nullify the matrix effect. The specimens were subjected to sample extraction in presence of internal standard by liquid-liquid extraction/protein precipitation method. After extraction, the samples were transferred into labeled auto sampler vials and submitted to LC-MS/MS analysis.

in vivo [4] = test: in vivo; parameters: species or system Sprague Dawley rats; settings: Sprague Dawley, rat, po
Protocol: Based on previous toxicity tests with analogs and pharmacokinetic data, repeated dose toxicity and toxicokinetic studies were conducted to generate information on the toxic characteristics of some representative compounds of the invention, viz. Example 8 and Example 12, respectively, when administered orally by gavage to Sprague Dawley rats for a period of 7 consecutive days. The study plan for the studies was by current ICH guidelines for 7 days toxicity studies and the No Observed Adverse Effect Level (NOAEL) of Example 8 and Example 12 was determined as 60 mg/kg body weight/day and 50 mg/kg bodyweight/day respectively when administered once daily orally to Sprague Dawley rats for 7 consecutive days under the tested dose levels and experimental conditions employed.

Chain of PI3Kα (P42336 whole entry, species assumed): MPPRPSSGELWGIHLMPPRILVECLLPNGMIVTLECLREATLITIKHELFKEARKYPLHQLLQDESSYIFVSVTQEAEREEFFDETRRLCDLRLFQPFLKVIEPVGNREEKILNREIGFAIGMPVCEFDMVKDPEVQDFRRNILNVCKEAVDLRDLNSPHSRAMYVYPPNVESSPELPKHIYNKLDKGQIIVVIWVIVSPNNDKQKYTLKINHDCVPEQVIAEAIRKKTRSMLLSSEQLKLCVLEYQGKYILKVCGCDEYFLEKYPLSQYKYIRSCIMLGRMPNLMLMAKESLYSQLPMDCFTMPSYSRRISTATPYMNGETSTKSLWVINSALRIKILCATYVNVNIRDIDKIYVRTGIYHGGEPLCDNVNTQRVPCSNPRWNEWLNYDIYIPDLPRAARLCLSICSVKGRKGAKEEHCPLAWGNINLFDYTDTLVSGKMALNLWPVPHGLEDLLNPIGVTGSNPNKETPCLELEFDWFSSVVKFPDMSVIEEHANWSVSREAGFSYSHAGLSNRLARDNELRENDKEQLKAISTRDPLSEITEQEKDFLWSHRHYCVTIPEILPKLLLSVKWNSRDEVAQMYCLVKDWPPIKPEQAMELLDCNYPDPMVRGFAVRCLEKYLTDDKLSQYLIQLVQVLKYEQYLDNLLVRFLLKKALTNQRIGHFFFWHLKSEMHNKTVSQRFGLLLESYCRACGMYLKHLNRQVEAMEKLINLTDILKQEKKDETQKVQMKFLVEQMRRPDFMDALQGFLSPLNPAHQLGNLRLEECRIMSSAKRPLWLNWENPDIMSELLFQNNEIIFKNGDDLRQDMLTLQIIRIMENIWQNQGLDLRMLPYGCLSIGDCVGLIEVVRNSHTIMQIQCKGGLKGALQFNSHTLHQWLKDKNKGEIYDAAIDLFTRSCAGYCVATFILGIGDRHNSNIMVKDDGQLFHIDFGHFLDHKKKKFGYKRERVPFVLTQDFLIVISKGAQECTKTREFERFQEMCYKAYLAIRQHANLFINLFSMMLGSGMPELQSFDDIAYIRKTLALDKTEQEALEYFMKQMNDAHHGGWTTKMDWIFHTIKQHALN
Chain of PI3Kα (P27986 whole entry partner, species assumed): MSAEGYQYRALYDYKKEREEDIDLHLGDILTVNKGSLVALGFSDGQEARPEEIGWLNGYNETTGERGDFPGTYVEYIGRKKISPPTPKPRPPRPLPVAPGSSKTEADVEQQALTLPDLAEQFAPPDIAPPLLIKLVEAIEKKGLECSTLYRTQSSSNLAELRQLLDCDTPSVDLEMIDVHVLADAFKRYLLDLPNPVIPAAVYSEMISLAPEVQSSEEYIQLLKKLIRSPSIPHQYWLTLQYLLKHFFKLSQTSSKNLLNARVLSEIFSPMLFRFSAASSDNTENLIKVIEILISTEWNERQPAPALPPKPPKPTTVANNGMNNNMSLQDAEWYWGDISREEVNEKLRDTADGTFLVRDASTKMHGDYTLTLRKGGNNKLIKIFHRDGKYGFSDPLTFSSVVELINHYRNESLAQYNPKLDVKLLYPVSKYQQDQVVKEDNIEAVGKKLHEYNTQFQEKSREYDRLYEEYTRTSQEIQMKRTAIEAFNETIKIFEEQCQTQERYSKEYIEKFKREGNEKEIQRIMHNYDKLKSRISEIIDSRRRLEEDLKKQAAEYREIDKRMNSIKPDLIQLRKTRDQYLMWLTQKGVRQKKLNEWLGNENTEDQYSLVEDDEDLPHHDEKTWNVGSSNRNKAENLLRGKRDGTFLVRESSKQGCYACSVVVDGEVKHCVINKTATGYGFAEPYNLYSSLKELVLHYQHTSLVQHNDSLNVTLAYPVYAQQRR
Chain of PI4KIIIβ (Q9UBF8 whole entry): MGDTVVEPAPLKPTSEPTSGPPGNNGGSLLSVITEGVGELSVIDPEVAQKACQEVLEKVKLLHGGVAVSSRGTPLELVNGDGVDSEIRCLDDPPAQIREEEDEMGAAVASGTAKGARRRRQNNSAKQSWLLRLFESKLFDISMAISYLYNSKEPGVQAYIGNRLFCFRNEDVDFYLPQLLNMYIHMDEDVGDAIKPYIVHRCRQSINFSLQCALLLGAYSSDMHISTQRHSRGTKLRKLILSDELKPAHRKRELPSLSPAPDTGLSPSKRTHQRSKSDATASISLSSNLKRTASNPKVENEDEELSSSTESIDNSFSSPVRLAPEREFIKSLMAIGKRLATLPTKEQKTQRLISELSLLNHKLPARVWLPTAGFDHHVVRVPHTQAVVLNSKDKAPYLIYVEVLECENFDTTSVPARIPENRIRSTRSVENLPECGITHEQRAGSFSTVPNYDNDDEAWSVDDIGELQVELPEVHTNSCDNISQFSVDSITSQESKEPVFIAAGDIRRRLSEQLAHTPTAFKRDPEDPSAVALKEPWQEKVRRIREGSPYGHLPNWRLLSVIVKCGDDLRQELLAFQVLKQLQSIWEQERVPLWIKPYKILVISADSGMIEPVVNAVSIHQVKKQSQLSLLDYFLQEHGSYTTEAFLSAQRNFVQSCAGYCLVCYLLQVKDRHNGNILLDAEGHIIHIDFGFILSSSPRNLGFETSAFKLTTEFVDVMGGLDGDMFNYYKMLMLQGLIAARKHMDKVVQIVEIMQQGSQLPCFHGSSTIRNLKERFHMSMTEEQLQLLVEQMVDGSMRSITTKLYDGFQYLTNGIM
Chain of PI3Kβ (P42338 whole entry, species assumed): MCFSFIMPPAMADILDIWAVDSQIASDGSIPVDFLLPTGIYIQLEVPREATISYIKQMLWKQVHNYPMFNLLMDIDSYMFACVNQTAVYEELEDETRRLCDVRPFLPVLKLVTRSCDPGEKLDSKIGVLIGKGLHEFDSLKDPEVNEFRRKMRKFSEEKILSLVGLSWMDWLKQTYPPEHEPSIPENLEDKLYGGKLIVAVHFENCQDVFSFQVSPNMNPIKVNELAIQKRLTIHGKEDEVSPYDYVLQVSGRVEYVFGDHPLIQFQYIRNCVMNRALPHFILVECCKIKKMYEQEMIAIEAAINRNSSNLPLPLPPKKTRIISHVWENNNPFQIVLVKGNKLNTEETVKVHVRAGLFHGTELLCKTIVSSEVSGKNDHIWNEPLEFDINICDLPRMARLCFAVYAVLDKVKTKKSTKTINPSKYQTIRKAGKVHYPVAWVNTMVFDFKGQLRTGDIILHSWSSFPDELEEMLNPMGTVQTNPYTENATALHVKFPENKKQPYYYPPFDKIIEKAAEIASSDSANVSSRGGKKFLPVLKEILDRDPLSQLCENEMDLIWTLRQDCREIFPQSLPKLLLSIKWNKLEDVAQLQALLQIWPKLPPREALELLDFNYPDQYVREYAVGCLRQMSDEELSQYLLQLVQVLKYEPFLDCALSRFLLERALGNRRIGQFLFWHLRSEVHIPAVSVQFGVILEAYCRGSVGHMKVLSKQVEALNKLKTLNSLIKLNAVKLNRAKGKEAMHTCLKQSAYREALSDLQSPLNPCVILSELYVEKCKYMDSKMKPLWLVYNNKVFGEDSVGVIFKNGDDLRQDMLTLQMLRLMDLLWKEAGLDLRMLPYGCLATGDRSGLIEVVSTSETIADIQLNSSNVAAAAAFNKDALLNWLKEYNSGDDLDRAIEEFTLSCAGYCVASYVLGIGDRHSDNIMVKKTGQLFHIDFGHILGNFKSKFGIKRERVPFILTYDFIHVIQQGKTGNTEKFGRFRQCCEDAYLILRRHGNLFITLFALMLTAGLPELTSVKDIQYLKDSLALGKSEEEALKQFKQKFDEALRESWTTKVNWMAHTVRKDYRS
Chain of PI3Kβ (P27986 whole entry partner, species assumed): as the sequence (P27986 whole entry partner, species assumed) above

SMILES | IC50 (Enterovirus 71) [nM] | IC50 (coxsackie B5 virus) [nM] | IC50 (coxsackie B4 virus) [nM] | IC50 (PI3Kβ) [nM] | IC50 (PI3Kα) [nM] | IC50 (Enterovirus 6) [nM] | IC50 (polio virus Sabin 1) [nM] | IC50 (Enterovirus 30) [nM] | IC50 (PI4KIIIβ) [nM] | IC50 (PI4KIIIα) [nM] | IC50 (Enterovirus 68) [nM] | IC50 (coxsackie B2 virus) [nM] | IC50 (coxsackie B3 virus) [nM] | IC50 (coxsackie B1 virus) [nM] | AUC(0-inf) (in vivo [1]) [ng·h/mL] | AUC(0-t) (in vivo [1]) [ng·h/mL] | AUCextrap (in vivo [1]) [%] | Cmax (in vivo [1]) [ng/mL] | MRT last (in vivo [1]) [h] | Tmax (in vivo [1]) [h] | further results
Cc1ccc(CNc2cc(C)nn3c(-c4ccc5c(c4)c(C)nn5C)c(C)nc23)cn1 [Example 2, 3-(1,3-dimethyl-1H-indazol-5-yl)-2,6-dimethyl-N-((6-methylpyridin-3-yl)methyl)imidazo[1,2-b]pyridazin-8-amine] | < 100 | < 100 | < 10 | 1700 | > 1000 | < 100 | < 100 | < 100 | 1.5 | 200 | < 1000 | < 100 | < 10 | < 100 | 64100 ± 7000 | 58600 ± 9900 | 8.8 ± 7.1 | 4800 ± 800 | 6.9 ± 0.8 | 1.7 ± 0.6 | half-life (in vivo [1]): 6.6 ± 2.4 h
Cc1cc(NCc2ccc(S(C)(=O)=O)cc2)c2nc(C)c(-c3ccc4c(c3)c(C)nn4C)n2n1 [Example 7, 3-(1,3-dimethyl-1H-indazol-5-yl)-2,6-dimethyl-N-(4-(methyl-sulfonyl)benzyl)imidazo[1,2-b]pyridazin-8-amine] | < 1 | < 10 | < 100 | – | – | – | < 10 | < 100 | – | – | < 1 | < 10 | < 1 | < 10 | – | – | – | – | – | – | Remaining after 1 h, RLM [2]: 94%; inhibition at 0.1 µM (EV71; 0 h, substance added at inoculation, read-out: Inhibition of cytopathogenic effect, 0 h): 85%; inhibition at 0.1 µM (EV71; 1 h, substance added one hour pre inoculation, read-out: Inhibition of cytopathogenic effect, −1 h): 95%; inhibition at 0.1 µM (EV71; substance added 2 hours past inoculation, read-out: Inhibition of cytopathogenic effect, +2 h): 100%; inhibition at 0.1 µM (EV71; substance added 6 hours past inoculation, read-out: Inhibition of cytopathogenic effect, +6 h): 91%; inhibition at 0.1 µM (EV71; substance added 24 hours past inoculation, read-out: Inhibition of cytopathogenic effect, +24 h): 2%; Remaining after 1 h, HLM [3]: 75%; half-life at 5 μM [3]: > 2 h; fraction unbound at 4 h, 5 μM (in vitro; human): 0.005; fraction unbound at 4 h, 5 μM (in vitro; rat): 0.006
Cc1cc(NCc2ccc(S(C)(=O)=O)cc2)n2nc(C)c(-c3ccc4c(c3)c(C)nn4C)c2n1 [Example 12, 3-(1,3-dimethyl-1H-indazol-5-yl)-2,5-dimethyl-N-(4-(methyl-sulfonyl)benzyl)pyrazolo[1,5-a]pyrimidin-7-amine] | < 10 | < 1 | < 1 | > 1000 | > 1000 | < 10 | < 10 | < 1 | 0.8 | 800 | < 100 | < 10 | < 1 | < 10 | 73300 ± 46900 | 30000 ± 8200 | 49.4 ± 24.5 | 1900 ± 100 | 10.3 ± 1.2 | 5.3 ± 2.3 | Remaining after 1 h, RLM [2]: 71%; NOAEL at 7 days (in vivo [4]): 50 mg/kg/day; Remaining after 1 h, HLM [3]: 84%; half-life at 5 μM [3]: > 2 h; half-life (in vivo [1]): 27.6 ± 16.8 h; fraction unbound at 4 h, 5 μM (in vitro; human): 0.01; fraction unbound at 4 h, 5 μM (in vitro; rat): 0.015
